# Paper PMC4979471 (Cell Death Discovery, 2015)
# Read-outs that look alike come from different tables or passages of the source.
# Experiments:
# Assay in all cases: Kinase selectivity, P33-radiolabeled assay
# Format in all cases: biochemical
# Details in all cases: 10 μM ATP
# [1] = target: T1, FLT3 (Homo sapiens, UniProt P36888)
# T1 construct: purchased Reaction Biology Corp
# T1 sequence (P36888 27-993): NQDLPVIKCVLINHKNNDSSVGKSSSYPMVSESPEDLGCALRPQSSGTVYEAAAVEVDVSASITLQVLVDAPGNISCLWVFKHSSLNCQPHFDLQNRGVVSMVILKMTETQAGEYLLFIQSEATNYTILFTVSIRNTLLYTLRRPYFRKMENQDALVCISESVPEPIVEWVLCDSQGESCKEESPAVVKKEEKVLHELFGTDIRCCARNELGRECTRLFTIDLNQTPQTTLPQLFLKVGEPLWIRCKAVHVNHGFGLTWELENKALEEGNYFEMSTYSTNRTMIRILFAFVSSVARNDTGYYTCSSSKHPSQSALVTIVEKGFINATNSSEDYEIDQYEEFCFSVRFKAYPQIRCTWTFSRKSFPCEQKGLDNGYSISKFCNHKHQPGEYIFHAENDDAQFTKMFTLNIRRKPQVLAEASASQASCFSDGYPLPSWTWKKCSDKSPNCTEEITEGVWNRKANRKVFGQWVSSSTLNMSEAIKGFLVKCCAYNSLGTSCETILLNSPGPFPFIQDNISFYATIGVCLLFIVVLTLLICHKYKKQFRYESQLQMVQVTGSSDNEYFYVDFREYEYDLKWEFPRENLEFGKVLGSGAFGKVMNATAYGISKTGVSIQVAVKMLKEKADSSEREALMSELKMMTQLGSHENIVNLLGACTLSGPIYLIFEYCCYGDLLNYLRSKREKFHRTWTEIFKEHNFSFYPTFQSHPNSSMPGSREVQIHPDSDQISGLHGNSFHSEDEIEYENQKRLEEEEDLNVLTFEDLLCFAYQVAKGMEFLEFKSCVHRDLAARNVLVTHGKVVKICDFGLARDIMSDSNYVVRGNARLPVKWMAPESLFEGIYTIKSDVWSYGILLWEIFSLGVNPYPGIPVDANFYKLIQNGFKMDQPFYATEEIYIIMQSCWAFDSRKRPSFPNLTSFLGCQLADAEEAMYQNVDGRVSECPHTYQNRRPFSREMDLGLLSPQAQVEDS
# Summary of the method: (§1)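 Reactions contained 10 μM ATP and 10 μM test compound, each run in duplicate. Kinase activity is expressed as a percentage of DMSO-treated controls.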
# [2] = target: T2, TRKC (Homo sapiens, UniProt Q16288)
# T2 construct: purchased Reaction Biology Corp
# Summary of the method: as §1
# [3] = target: T3, CHK2 (Homo sapiens, UniProt O96017)
# T3 construct: purchased Reaction Biology Corp
# Summary of the method: as §1
# [4] = target: T4, SGK1 (Homo sapiens, UniProt O00141)
# T4 construct: purchased Reaction Biology Corp
# T4 sequence (O00141 1-431): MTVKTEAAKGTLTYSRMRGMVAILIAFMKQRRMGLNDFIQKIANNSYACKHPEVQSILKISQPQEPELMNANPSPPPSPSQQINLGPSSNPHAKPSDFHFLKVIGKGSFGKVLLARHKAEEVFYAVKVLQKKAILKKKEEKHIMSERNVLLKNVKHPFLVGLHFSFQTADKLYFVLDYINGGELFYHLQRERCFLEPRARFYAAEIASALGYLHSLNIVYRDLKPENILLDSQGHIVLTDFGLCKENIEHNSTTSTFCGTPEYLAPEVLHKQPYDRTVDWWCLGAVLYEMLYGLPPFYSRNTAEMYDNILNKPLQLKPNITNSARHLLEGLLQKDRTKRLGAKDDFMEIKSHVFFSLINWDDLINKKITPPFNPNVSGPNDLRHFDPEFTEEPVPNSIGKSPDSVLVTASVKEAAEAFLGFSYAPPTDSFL
# Summary of the method: as §1
# [5] = target: T5, FRK/PTK5 (Homo sapiens, UniProt P42685)
# T5 construct: purchased Reaction Biology Corp
# Summary of the method: as §1
# [6] = target: T6, DYRK1/DYRK1A (Homo sapiens, UniProt Q13627)
# T6 construct: purchased Reaction Biology Corp
# Summary of the method: as §1
# [7] = target: T7, MST2/STK3 (Homo sapiens, UniProt Q13188)
# T7 construct: purchased Reaction Biology Corp
# T7 sequence (Q13188 1-491): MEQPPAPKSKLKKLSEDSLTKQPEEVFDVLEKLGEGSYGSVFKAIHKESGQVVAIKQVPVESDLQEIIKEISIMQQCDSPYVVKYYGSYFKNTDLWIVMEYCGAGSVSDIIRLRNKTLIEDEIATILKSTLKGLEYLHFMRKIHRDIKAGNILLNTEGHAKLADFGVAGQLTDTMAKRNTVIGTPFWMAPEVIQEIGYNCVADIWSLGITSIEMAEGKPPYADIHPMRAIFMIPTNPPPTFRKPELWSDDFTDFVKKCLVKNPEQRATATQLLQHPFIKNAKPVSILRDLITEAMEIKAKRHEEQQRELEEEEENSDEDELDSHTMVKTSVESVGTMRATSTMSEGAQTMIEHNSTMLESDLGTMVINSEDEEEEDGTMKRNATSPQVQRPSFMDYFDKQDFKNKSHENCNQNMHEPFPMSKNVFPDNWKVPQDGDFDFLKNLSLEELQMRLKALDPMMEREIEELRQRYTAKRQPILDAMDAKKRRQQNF
# Summary of the method: as §1
# [8] = target: T8, PHKg1 (Homo sapiens, UniProt Q16816)
# T8 construct: purchased Reaction Biology Corp
# Summary of the method: as §1
# [9] = target: T9, TNIK (Homo sapiens, UniProt Q9UKE5)
# T9 construct: purchased Reaction Biology Corp
# Summary of the method: as §1
# [10] = read-out: % Enzyme Activity (relative to DMSO controls) AVG
# [11] = read-out: % Enzyme Activity (relative to DMSO controls) Data 1
# [12] = read-out: % Enzyme Activity (relative to DMSO controls) Data 2
# T2 sequence (Q16288 32-839): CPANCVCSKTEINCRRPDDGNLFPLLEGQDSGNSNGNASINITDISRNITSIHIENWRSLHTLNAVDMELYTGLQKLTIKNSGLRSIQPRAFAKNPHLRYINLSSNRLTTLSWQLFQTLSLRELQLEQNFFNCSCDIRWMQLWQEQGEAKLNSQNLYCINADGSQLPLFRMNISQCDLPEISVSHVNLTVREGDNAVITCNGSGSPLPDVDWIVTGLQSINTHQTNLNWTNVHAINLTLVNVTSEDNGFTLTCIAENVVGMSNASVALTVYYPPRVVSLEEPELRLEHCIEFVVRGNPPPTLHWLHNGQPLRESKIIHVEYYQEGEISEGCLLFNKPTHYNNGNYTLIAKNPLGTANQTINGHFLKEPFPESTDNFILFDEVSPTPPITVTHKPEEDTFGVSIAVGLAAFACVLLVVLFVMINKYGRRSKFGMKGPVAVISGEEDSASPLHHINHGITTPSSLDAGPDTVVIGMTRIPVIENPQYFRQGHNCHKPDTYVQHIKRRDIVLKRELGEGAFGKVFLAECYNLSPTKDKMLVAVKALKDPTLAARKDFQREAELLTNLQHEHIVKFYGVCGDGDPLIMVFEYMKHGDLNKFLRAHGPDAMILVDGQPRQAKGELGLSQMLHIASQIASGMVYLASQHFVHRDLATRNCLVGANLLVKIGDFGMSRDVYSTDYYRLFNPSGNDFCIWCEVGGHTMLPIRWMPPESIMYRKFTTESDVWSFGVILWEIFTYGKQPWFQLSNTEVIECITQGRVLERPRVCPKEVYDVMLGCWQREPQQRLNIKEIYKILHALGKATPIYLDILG
# T3 sequence (O96017 whole entry): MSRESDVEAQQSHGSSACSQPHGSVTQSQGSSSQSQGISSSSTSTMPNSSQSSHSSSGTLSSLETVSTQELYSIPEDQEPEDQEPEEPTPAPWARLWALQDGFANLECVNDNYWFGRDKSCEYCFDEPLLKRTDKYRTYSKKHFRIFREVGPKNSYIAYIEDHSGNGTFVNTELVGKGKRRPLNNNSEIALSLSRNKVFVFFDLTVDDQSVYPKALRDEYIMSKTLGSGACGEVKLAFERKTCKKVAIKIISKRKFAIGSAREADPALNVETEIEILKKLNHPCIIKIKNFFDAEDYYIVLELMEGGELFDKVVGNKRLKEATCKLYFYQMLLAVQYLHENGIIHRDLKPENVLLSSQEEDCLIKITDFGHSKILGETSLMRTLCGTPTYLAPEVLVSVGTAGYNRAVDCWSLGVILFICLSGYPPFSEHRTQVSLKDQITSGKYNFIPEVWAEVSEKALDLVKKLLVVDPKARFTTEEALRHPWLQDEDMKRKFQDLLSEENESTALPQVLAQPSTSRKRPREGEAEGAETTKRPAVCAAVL
# T5 sequence (P42685 whole entry): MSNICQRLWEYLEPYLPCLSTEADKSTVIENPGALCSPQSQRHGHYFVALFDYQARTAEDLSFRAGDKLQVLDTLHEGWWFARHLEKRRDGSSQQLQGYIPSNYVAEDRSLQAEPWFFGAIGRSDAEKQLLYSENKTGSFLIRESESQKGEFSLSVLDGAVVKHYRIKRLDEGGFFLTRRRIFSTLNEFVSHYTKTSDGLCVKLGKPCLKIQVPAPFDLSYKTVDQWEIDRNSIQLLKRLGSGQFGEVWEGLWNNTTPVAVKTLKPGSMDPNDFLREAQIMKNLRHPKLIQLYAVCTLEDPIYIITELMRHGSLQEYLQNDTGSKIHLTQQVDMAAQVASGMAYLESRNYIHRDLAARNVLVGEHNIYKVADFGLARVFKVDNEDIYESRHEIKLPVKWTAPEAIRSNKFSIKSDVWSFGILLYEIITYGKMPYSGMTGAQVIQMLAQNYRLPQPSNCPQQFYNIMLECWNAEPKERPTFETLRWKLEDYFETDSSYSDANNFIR
# T8 sequence (Q16816 whole entry): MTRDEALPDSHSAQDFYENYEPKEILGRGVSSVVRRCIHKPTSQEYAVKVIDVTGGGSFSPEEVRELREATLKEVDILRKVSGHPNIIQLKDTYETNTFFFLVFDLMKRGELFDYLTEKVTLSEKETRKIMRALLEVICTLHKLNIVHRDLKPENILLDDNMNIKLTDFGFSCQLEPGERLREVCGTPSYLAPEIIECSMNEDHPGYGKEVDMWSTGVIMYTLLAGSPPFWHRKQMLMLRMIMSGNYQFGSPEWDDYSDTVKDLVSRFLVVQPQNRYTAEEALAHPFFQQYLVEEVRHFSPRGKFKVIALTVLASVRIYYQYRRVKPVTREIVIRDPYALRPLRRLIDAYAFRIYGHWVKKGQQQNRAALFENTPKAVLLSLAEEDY
# T9 sequence (Q9UKE5 whole entry): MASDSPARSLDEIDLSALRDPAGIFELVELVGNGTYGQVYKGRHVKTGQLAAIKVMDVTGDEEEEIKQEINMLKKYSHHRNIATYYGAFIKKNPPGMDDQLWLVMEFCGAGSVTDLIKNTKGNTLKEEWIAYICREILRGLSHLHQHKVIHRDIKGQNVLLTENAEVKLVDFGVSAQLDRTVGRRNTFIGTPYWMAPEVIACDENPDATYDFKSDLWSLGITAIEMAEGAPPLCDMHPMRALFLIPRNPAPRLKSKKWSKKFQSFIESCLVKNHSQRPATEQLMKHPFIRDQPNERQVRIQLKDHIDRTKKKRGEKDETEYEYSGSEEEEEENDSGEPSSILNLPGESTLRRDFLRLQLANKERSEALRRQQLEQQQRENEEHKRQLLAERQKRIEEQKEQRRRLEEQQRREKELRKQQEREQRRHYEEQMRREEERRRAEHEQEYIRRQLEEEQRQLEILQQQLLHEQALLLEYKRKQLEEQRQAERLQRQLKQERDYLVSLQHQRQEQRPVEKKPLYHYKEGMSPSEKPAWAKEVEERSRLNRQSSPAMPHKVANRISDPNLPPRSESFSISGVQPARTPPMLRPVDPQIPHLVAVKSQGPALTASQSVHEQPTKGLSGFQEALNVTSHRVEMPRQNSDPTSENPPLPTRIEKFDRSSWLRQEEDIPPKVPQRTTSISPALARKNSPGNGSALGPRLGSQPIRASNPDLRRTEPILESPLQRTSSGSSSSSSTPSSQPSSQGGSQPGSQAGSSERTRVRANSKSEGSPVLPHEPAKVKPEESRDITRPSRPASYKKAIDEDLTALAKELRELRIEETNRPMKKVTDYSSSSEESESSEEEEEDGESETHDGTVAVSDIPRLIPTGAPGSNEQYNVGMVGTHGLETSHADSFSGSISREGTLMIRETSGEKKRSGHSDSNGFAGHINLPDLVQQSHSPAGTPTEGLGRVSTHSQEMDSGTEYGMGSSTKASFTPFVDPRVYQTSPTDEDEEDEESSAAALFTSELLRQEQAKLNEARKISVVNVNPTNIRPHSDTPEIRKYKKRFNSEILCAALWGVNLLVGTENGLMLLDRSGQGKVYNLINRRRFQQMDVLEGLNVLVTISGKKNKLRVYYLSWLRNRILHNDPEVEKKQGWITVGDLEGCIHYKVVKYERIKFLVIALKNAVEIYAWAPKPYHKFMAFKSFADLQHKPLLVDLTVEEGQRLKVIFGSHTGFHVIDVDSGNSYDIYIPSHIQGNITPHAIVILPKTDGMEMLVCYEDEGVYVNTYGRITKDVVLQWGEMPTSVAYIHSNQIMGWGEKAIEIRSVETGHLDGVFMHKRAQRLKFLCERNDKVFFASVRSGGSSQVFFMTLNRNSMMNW
compound,measurement,setting,value
CC(C)(C)C(=O)N1N=CC[C@H]1c1ccccc1 [GSK′963],remaining activity at 10 µM,[1]; [10],101%
same,remaining activity at 10 µM,[1]; [11],98.7%
same,remaining activity at 10 µM,[1]; [12],103%
same,remaining activity at 10 µM,[2]; [10],99.2%
same,remaining activity at 10 µM,[2]; [11],100%
same,remaining activity at 10 µM,[2]; [12],98%
same,remaining activity at 10 µM,[3]; [10],105%
same,remaining activity at 10 µM,[3]; [11],106%
same,remaining activity at 10 µM,[3]; [12],104%
same,remaining activity at 10 µM,[4]; [10],99.7%
same,remaining activity at 10 µM,[4]; [11],99%
same,remaining activity at 10 µM,[4]; [12],100%
same,remaining activity at 10 µM,[5]; [10],86%
same,remaining activity at 10 µM,[5]; [11],87.6%
same,remaining activity at 10 µM,[5]; [12],84.4%
same,remaining activity at 10 µM,[6]; [10],103%
same,remaining activity at 10 µM,[6]; [11],103%
same,remaining activity at 10 µM,[6]; [12],103%
same,remaining activity at 10 µM,[7]; [10],107%
same,remaining activity at 10 µM,[7]; [11],105%
same,remaining activity at 10 µM,[7]; [12],109%
same,remaining activity at 10 µM,[8]; [10],102%
same,remaining activity at 10 µM,[8]; [11],103%
same,remaining activity at 10 µM,[8]; [12],101%
same,remaining activity at 10 µM,[9]; [10],106%
same,remaining activity at 10 µM,[9]; [11],108%
same,remaining activity at 10 µM,[9]; [12],104%
